Article PMC9374667 (Communications Biology, 2022)
Several values for one entry are separate records, joined by “and”; a condition that tells them apart may be missing. Equal entries are not always repeated.

Experiments:
[1] = Berberine content in adipose tissue of db/db mice (HPLC); settings: BJ 75 and 150 mg/kg, BBR 150 mg/kg, crushing, extracting
From the text: Response: We thank the Reviewer for this comment. In line with the Reviewer ’s
each group by crushing, extracting, and HPLC analysis.
based on the improved bioavailability.
Figure 1. (a) The positions of the peaks of berberine standards in the HPLC assay.

IKKε = biological target: T1, IKKε (Mus musculus, UniProt Q9R0T8); assay: IKKε kinase activity in TNF-α induced 3T3-L1 adipocytes; type: cell-based, Murine; parameters: endogenous in cells; host or cells: differentiated 3T3-L1 adipocytes; IKKε kinase activity: unit not given here; settings: for IKKε kinase activity: Figure 7h, replicates
T1 sequence (Q9R0T8 1-717): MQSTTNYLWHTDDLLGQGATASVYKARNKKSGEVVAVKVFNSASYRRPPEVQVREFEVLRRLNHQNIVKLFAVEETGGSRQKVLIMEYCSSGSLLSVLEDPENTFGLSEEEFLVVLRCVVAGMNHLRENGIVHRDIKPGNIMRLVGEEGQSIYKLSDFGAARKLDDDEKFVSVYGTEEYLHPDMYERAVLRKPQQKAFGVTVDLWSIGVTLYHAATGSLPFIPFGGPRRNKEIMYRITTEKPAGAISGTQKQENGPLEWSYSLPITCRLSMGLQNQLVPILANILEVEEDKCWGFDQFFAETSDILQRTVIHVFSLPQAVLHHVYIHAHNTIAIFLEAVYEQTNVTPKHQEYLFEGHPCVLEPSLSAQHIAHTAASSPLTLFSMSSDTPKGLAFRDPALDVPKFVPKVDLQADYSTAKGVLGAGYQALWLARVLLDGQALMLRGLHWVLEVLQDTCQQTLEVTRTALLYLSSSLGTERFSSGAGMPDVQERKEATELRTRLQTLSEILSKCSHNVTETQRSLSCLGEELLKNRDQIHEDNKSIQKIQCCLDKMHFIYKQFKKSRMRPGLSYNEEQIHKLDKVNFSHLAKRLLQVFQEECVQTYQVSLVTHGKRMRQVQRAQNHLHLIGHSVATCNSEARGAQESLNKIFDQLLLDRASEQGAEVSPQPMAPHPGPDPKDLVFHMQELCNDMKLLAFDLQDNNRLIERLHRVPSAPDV

TBK1 = biological target: T2, TBK1 (Mus musculus, UniProt Q9WUN2); assay: TBK1-knockdown 3T3-L1 adipocytes (siRNA; western blotting, immunofluorescence); type: cell-based, Murine; parameters: host or cells: differentiated 3T3-L1 adipocytes (Lipofectamine 2000); TBK1 (western blotting, Figure 9b) / p-AMPK (western blotting, Figure 9c) / UCP1 (western blotting, Figure 9d): unit not given here; settings: for MitoTracker (immunofluorescence, Figure 9f) / UCP1 (immunofluorescence, Figure 9g): replicates 1-12
T2 sequence (Q9WUN2 1-729): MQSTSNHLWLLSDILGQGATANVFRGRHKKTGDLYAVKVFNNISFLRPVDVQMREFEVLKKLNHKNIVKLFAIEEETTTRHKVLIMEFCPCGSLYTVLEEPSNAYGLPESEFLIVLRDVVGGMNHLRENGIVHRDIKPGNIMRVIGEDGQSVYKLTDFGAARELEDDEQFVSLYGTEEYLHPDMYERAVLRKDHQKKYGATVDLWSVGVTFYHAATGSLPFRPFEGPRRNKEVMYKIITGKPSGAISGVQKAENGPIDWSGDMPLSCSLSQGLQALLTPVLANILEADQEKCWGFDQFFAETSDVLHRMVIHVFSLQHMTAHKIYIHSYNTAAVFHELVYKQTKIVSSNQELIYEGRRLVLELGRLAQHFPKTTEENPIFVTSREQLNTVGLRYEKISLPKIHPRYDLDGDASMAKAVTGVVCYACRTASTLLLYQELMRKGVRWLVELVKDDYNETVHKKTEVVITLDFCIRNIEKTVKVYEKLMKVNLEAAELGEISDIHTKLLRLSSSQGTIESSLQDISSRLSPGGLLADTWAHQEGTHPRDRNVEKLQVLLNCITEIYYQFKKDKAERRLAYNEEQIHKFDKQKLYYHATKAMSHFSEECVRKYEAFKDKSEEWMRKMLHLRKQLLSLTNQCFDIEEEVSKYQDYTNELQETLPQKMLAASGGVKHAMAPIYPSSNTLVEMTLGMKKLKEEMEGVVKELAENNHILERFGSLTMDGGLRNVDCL
Protocol: Small interference RNA transfection (siRNA) was performed using 4 μM TBK1 siRNA (siTBK1) or 4 μM […]ε) or corresponding NC siRNA (siNC). The 3T3-L1 adipocytes were washed with PBS for 3 times, fixed with 4% paraformaldehyde solution for 30 min, and then washed again for 3 times. […] The cells were then incubated overnight at 4 °C with the appropriate primary antibodies (1:100 dilution). The next day, the 3T3-L1 adipocytes were washed and incubated at room temperature with goat anti-rabbit secondary antibody or goat anti-mouse secondary antibody (1:1000 dilution) for 2 h and washed with PBS for 3 times. The nuclei were stained with DAPI. […] Fluorescence images were taken using a laser confocal microscope (SP8, Leica, Germany). At least four images per section were acquired for quantification, and the mean intensity were evaluated using ImageJ. The adipose tissue or 3T3-L1 adipocytes were homogenized by ultrasound in an ice-cold RIPA lysis buffer containing 1% PMSF and centrifuged at 12,000 × g at 4°C for 15 min to collect the supernatant. The BCA protein assay kit (Beyotime, Shanghai, China) was used to detect the total protein concentration. Proteins (20-30 μg) of the sample were separated by 10% SDS-PAGE gel and transferred onto polyvinylidene difluoride (PVDF) membranes. Then the PVDF membranes were blocked in 5% skim milk powder in TBS containing 1% Tween-20 (TBST) for 2 h at room temperature and washed with TBST for 3 times. […] After washing, the membranes were incubated with horseradish peroxidase-conjugated secondary antibodies (in 5% skim milk powder) for 1 h at room temperature. Finally, the membranes were treated with enhanced chemiluminescence agents (Tanon, Shanghai, China) and the signals were monitored using the Tanon 5200 multi chemiluminescent imaging system (Tanon, Shanghai, China).

Compound | BBR in adipose tissue (accumulation) [1] | IKKε kinase activity (IKKε; TNF-α(50ng/ml)+3μM BJ) | IKKε kinase activity (IKKε; TNF-α(50ng/ml)+10μM BJ) | IKKε expression level / kinase activity (IKKε; TNF-α induced 3T3-L1 adipocytes, BJ treatment for 24 h) | TBK1 (western blotting, Figure 9b) (TBK1; 10μM BJ) | UCP1 (western blotting, Figure 9d) (TBK1; 10μM BJ) | p-AMPK (western blotting, Figure 9c) (TBK1; 10μM BJ) | MitoTracker (immunofluorescence, Figure 9f) (TBK1; 10μM BJ) | UCP1 (immunofluorescence, Figure 9g) (TBK1; 10μM BJ) | Expression of p-AMPKα and UCP1 (TBK1; 3T3-L1 adipocytes, BJ alone, 24 h) | Expression levels of p-AMPKα and UCP1 (TBK1; TBK1-knockdown 3T3-L1 adipocytes treated with BJ, vs TBK1-knockdown) | TBK1 (western blotting, Figure 9b) (TBK1; siTBK1+10μM BJ) | UCP1 (western blotting, Figure 9d) (TBK1; siTBK1+10μM BJ) | p-AMPK (western blotting, Figure 9c) (TBK1; siTBK1+10μM BJ) | MitoTracker (immunofluorescence, Figure 9f) (TBK1; siTBK1+10μM BJ) | UCP1 (immunofluorescence, Figure 9g) (TBK1; siTBK1+10μM BJ)
COc1ccc2cc3[n+](cc2c1OC)CCc1cc2c(cc1-3)OCO2 [BBR, Berberine chloride dihydrate] | not detected |  |  |  |  |  |  |  |  |  |  |  |  |  |  | 
CC(C)Cc1ccc(C(C)C(=O)[O-])cc1.COc1ccc2cc3[n+](cc2c1OC)CCc1cc2c(cc1-3)OCO2.O.O.O.O [BJ, berberine-ibuprofen] |  | 47.3662 and 40.5834 and 38.8273 and 37.402 and 43.0522 and 46.31 | 22.5765 and 26.127 and 25.2998 and 23.4546 and 23.7218 and 26.8142 | markedly decreased | 0.1548 and 0.1822 and 0.1679 | 0.6444 and 0.6902 and 0.5582 | 0.3674 and 0.4043 and 0.3553 | 22.957 and 24.343 and 25.025 and 18.793 and 24.708 and 21.147 and 28.941 and 23.595 and 21.858 and 24.262 and 23.917 and 27.936 | 28.366 and 25.764 and 25.784 and 25.906 and 27.454 and 28.774 and 34.011 and 26.939 and 25.523 and 31.625 and 28.718 and 27.261 | significantly increased the expression of p-AMPKα and UCP1 | not significantly changed | 0.1211 and 0.0965 and 0.1123 | 0.7411 and 0.669 and 0.5981 | 0.4095 and 0.4234 and 0.498 | 25.218 and 30.785 and 30.877 and 30.71 and 22.848 and 22.479 and 31.768 and 31.566 and 27.335 and 20.91 and 29.763 and 33.52 | 30.066 and 28.142 and 35.211 and 34.925 and 27.446 and 30.425 and 28.118 and 35.655 and 39.617 and 27.871 and 25.612 and 40.285
